Reference: article PMC6152134, “Synthesis and In Vitro Anticancer Activity of Novel Dehydroabietic Acid-Based Acylhydrazones” (Molecules : A Journal of Synthetic Chemistry and Natural …, 2017)

Experiments:
[1] = system: BEL-7402 (liver) human carcinoma cell line; test: MTT cytotoxicity assay, BEL-7402 cells; format: cell-based; conditions: 48 h exposure
Protocol: (§1) Compounds 4a–x were evaluated for their cytotoxic activity in vitro against the human cancer cell lines, CNE-2, HepG2, HeLa, and BEL-7402 by using a 3-(4,5-dimethylthiazol-2-yl)-2,5-diphenyl tetrazolium bromide (MTT) colorimetric assay. Cisplatin was included in the experiments as a positive control, and the IC50 of DHA is also presented to compare the anticancer activities. The calculated IC50 values were reported differently according to the different cancer cells.
(§2) The CNE-2, HepG2, HeLa, and BEL-7402 cell lines used in this work were all purchased from the Institute of Biochemistry and Cell Biology, China Academy of Sciences. All were supplemented with 10% heat-inactivated fetal bovine serum in a humidified atmosphere of 5% CO2/95% air at 37 °C. In order to investigate the potential of compounds 4, cisplatin, a commercial classical anticancer drug was used as a reference drug. CNE-2, HepG2, HeLa, and BEL-7402 cells were seeded into 96-well microculture plates and allowed to adhere for 24 h, respectively. After cells were exposed to compounds at concentrations from 100 to 0.1 μM for 48 h, medium was aspirated and replenished with complete medium. IC50 values was evaluated by MTT tetrazolium dye assay. All the tests were repeated in at least three independent experiments. The IC50 values of the compounds were calculated using SPSS Version 10 software (IBM, New York, NY, USA), which defined the IC50 value as the concentration required to inhibit cell growth by 50%.

[2] = system: HepG2 (liver) human carcinoma cell line; test: MTT cytotoxicity assay, HepG2 cells; format: cell-based; conditions: 48 h exposure
Protocol: as §1, §2

[3] = system: CNE-2 (nasopharynx) human carcinoma cell line; test: MTT cytotoxicity assay, CNE-2 cells; format: cell-based; conditions: 48 h exposure
Protocol: as §1, §2

[4] = system: HL-7702 normal human liver cell line; test: MTT cytotoxicity assay, HL-7702 normal liver cells; format: cell-based
[5] = system: HeLa (epithelial cervical) human carcinoma cell line; test: MTT cytotoxicity assay, HeLa cells; format: cell-based; conditions: 48 h exposure
Protocol: as §1, §2

[6] = system: human promyelocytic leukemic cells (HL-60); set-up: method as in PMID 20884091; conditions: read-out: IC50 against HL-60; cited from earlier work
[7] = L02, normal human liver cell HL-7702

| Compound | IC50 ([1]; Homo sapiens) [µM] | melting point [°C] | IC50 ([2]; Homo sapiens, HepG2, 48 h) [µM] | IC50 ([3]; Homo sapiens) [µM] | IC50 [4, 7] [µM] | IC50 ([5]; Homo sapiens, HeLa, 48 h) [µM] | IC50 [2] [µM] | IC50 [5] [µM] | IC50 [6] [µM] | IC50 [1] [µM] | IC50 [3] [µM] | IC50 ([4]; normal human liver cell HL-7702) [µM] |
| --- | --- | --- | --- | --- | --- | --- | --- | --- | --- | --- | --- | --- |
| CC(C)c1ccc2c(c1)CCC1C(C)(C(=O)OCC(=O)NN=Cc3ccccc3)CCCC21C (centres unmarked) [4a] | 36.7 ± 0.34 | 155.1 to 156.7 | 27.8 ± 0.58 | 28.2 ± 0.43 | > 100 | 17.89 ± 0.13 |  |  |  |  |  |  |
| Cc1ccc(C=NNC(=O)COC(=O)C2(C)CCCC3(C)c4ccc(C(C)C)cc4CCC23)cc1 (centres unmarked) [4b] | 15.38 ± 0.08 | 170 to 172.1 | 12.4 ± 0.31 | 17.2 ± 0.21 | 68.6 ± 2.14 | 6.72 ± 0.22 |  |  |  |  |  |  |
| CC(C)c1ccc2c(c1)CCC1C(C)(C(=O)OCC(=O)NN=C/C=C/c3ccccc3)CCCC21C (centres unmarked) [4c, N’-(3-Phenylallylidene)-2-(dehydroabietyloxy)acetohydrazide] | 21.03 ± 0.09 | 185.7 to 187.3 | 27.6 ± 0.23 | 15.8 ± 0.56 | 53.2 ± 1.36 | 10.8 ± 0.43 |  |  |  |  |  |  |
| COc1cc(C=NNC(=O)COC(=O)C2(C)CCCC3(C)c4ccc(C(C)C)cc4CCC23)ccc1O (centres unmarked) [4d] | 33.6 ± 0.38 | 117.6 to 119 | 35.26 ± 0.11 | 38.7 ± 0.49 | 50.7 ± 1.82 | 12.22 ± 0.08 |  |  |  |  |  |  |
| CC(C)c1ccc2c(c1)CCC1C(C)(C(=O)OCC(=O)NN=Cc3ccc(N(C)C)cc3)CCCC21C (centres unmarked) [4e] | 15.6 ± 0.44 | 163.4 to 164.7 | 7.62 ± 0.32 | 48.85 ± 0.05 | 63 ± 3.06 | 34.92 ± 0.16 |  |  |  |  |  |  |
| CC(C)c1ccc2c(c1)CCC1C(C)(C(=O)OCC(=O)NN=Cc3ccco3)CCCC21C (centres unmarked) [4f] | 16.9 ± 0.41 | 125.7 to 126.4 | 25.6 ± 0.35 | 51.39 ± 0.34 | 61.9 ± 1.34 | 33.23 ± 0.21 |  |  |  |  |  |  |
| CC(C)c1ccc2c(c1)CCC1C(C)(C(=O)OCC(=O)NN=Cc3ccccc3O)CCCC21C (centres unmarked) [4g] | 36.4 ± 0.74 | 214.9 to 215.6 | 12.5 ± 0.46 | 60.4 ± 1.02 | > 100 | 27.3 ± 0.5 |  |  |  |  |  |  |
| CC(C)c1ccc2c(c1)CCC1C(C)(C(=O)OCC(=O)NN=Cc3ccccc3[N+](=O)[O-])CCCC21C (centres unmarked) [4h] | 38.5 ± 0.52 | 94.9 to 96.7 | 44.6 ± 0.92 | 98.78 ± 0.45 | > 100 | 15.2 ± 0.29 |  |  |  |  |  |  |
| CC(C)c1ccc2c(c1)CCC1C(C)(C(=O)OCC(=O)NN=Cc3cccc([N+](=O)[O-])c3)CCCC21C (centres unmarked) [4i] | 44.65 ± 0.21 | 99.6 to 101.9 | 57.8 ± 0.75 | 12.6 ± 0.24 | 77.1 ± 0.96 | 13.9 ± 0.41 |  |  |  |  |  |  |
| CC(C)c1ccc2c(c1)CCC1C(C)(C(=O)OCC(=O)NN=Cc3ccc([N+](=O)[O-])cc3)CCCC21C (centres unmarked) [4j] | 27.45 ± 0.17 | 177.2 to 179.8 | 39.5 ± 0.82 | 93.26 ± 0.52 | > 100 | 13.06 ± 0.08 |  |  |  |  |  |  |
| CC(C)c1ccc2c(c1)CCC1C(C)(C(=O)OCC(=O)NN=Cc3ccccc3Br)CCCC21C (centres unmarked) [4k, N’-(2-Bromobenzylidene)-2-(dehydroabietyloxy)acetohydrazide] | 48.16 ± 0.32 | 184.9 to 185.7 | < 10 | 47.7 ± 0.23 | 65.9 ± 1.48 | < 10 | 8.47 ± 0.55 | 5.53 ± 0.04 |  |  |  |  |
| CC(C)c1ccc2c(c1)CCC1C(C)(C(=O)OCC(=O)NN=Cc3cccc(Br)c3)CCCC21C (centres unmarked) [4l] | 19.9 ± 0.27 | 178.3 to 179.8 | 35.1 ± 0.96 | 11.45 ± 0.11 | 86.4 ± 3.12 | 25.14 ± 0.1 |  |  |  |  |  |  |
| CC(C)c1ccc2c(c1)CCC1C(C)(C(=O)OCC(=O)NN=Cc3ccc(Br)cc3)CCCC21C (centres unmarked) [4m] | 23.1 ± 0.33 | 188.1 to 188.6 | 9.94 ± 0.59 | 89.66 ± 0.27 | > 100 | 12.8 ± 0.15 |  |  |  |  |  |  |
| COc1ccccc1C=NNC(=O)COC(=O)C1(C)CCCC2(C)c3ccc(C(C)C)cc3CCC12 (centres unmarked) [4n] | 23.8 ± 0.51 | 190.3 to 191.8 | 50.1 ± 0.74 | 26.08 ± 0.05 | 70.4 ± 2.23 | 45.13 ± 0.09 |  |  |  |  |  |  |
| COc1cccc(C=NNC(=O)COC(=O)C2(C)CCCC3(C)c4ccc(C(C)C)cc4CCC23)c1 (centres unmarked) [4o] | 14.8 ± 0.38 | 136.7 to 137.9 | 51.3 ± 0.63 | 86.46 ± 0.13 | > 100 | 32.06 ± 0.21 |  |  |  |  |  |  |
| COc1ccc(C=NNC(=O)COC(=O)C2(C)CCCC3(C)c4ccc(C(C)C)cc4CCC23)cc1 (centres unmarked) [4p, N’-(4-Methoxybenzylidene)-2-(dehydroabietyloxy)acetohydrazide] | 55.29 ± 0.44 | 174.8 to 175.5 | 48.59 ± 0.09 | 56.98 ± 0.08 | 91.8 ± 1.57 | 34.33 ± 0.32 |  |  |  |  |  |  |
| CC(C)c1ccc2c(c1)CCC1C(C)(C(=O)OCC(=O)NN=Cc3ccccc3F)CCCC21C (centres unmarked) [4q, Dehydroabietic acid-based 2-fluorophenyl acylhydrazone] | 22.8 ± 0.34 | 130.2 to 130.5 | 93.76 ± 0.39 | 27.4 ± 0.72 | > 100 | 27.71 ± 0.14 |  |  |  |  |  |  |
| CC(C)c1ccc2c(c1)CCC1C(C)(C(=O)OCC(=O)NN=Cc3cccc(F)c3)CCCC21C (centres unmarked) [4r] | 25.9 ± 0.53 | 166 to 167.3 | 31.6 ± 0.47 | 51 ± 0.94 | 68.6 ± 1.25 | 12.8 ± 0.13 |  |  |  |  |  |  |
| CC(C)c1ccc2c(c1)CCC1C(C)(C(=O)OCC(=O)NN=Cc3ccc(F)cc3)CCCC21C (centres unmarked) [4s] | 25.22 ± 0.22 | 169.2 to 170.5 | 90.08 ± 0.33 | 49.81 ± 0.49 | > 100 | 28.79 ± 0.24 |  |  |  |  |  |  |
| CC(C)c1ccc2c(c1)CCC1C(C)(C(=O)OCC(=O)NN=Cc3cccc(F)c3F)CCCC21C (centres unmarked) [4t] | 18.8 ± 0.59 | 150.2 to 153.5 | 22.89 ± 0.04 | 33.3 ± 0.56 | 72 ± 1.66 | 11.1 ± 0.15 |  |  |  |  |  |  |
| CC(C)c1ccc2c(c1)CCC1C(C)(C(=O)OCC(=O)NN=Cc3ccc(F)cc3F)CCCC21C (centres unmarked) [4u, N’-(2,4-Difluorobenzylidene)-2-(dehydroabietyloxy)acetohydrazide] | 18.6 ± 0.37 | 181.9 to 184.5 | 25.4 ± 0.54 | 32.83 ± 0.16 | 55.8 ± 1.38 | 5.86 ± 0.09 |  |  |  |  |  |  |
| CC(C)c1ccc2c(c1)CCC1C(C)(C(=O)OCC(=O)NN=Cc3c(F)cccc3F)CCCC21C (centres unmarked) [4v] | 20.5 ± 0.53 | 107.3 to 110 | 16.9 ± 0.18 | 26.8 ± 0.46 | 44.6 ± 2.02 | 15 ± 0.21 |  |  |  |  |  |  |
| CC(C)c1ccc2c(c1)CCC1C(C)(C(=O)OCC(=O)NN=Cc3cc(F)cc(F)c3)CCCC21C (centres unmarked) [4w] | 14.5 ± 0.22 | 182.6 to 186.6 | 12.07 ± 0.07 | 15.4 ± 0.21 | 66.1 ± 1.84 | 2.21 ± 0.04 |  |  |  |  |  |  |
| O=C(N/N=C/c1ccccc1O)c1ccc(-c2ccc(F)cc2F)o1 [(E)-2-hydroxybenzaldehyde-5-(2,4-difluorophenyl)-2-furoyl hydrazone] |  |  |  |  |  |  |  |  | 16.4 |  |  |  |
| N.N.[Cl][Pt][Cl] [Cisplatin, cisplatin, reference compound] |  |  |  |  |  |  | 6.42 ± 0.18 | 1.94 ± 0.2 |  | 12.7 ± 0.33 | 8.75 ± 0.24 | 20.8 ± 0.83 |
| CC(C)c1ccc2c(c1)CC[C@H]1[C@](C)(C(=O)O)CCC[C@]21C [DHA, dehydroabietic acid] | 46.7 ± 0.55 |  | 80.4 ± 0.84 | 88.64 ± 0.73 | > 100 | 37.4 ± 0.64 |  |  |  |  |  |  |
| COc1cccc2c1C(=O)c1c(O)c3c(c(O)c1C2=O)C[C@@](O)(C(=O)CO)C[C@@H]3O[C@H]1C[C@H](N)[C@H](O)[C@H](C)O1 [doxorubicin] |  |  |  |  |  |  |  |  | 53.3 |  |  |  |
